In patent US20240124442A1, “TRICYCLIC-AMIDO-BICYCLIC PRMT5 INHIBITORS” (AMGEN INC., priority 2021, published 2024):

Experiments:
[1] = tested on: HCT116 MTAP null cells; assay: HCT116 MTAP null cell line proliferation / cell viability (CellTiter-Glo, 6 days); assay type: cell-based; settings: 144 h; HCT116 MTAP null cells, 6 days treatment, CellTiter-Glo cell viability; read-out: HCT-116 MTAP null IC50
How it was run: (§1)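 WT vs MTAP-null HCT116, 6 d drug, CTG readout. 1:3 × 8–9 pts (top 1/10 μM) or 1:2 × 22 pts (top 10/50 μM). IC50 by 4PL or Hill −1 fit.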

[2] = tested on: HCT116 WT cells; assay: HCT116 WT (parent) cell line proliferation / cell viability (CellTiter-Glo, 6 days); assay type: cell-based; settings: Homo sapiens, HCT-116, 144 h, 6 days treatment
How it was run: as §1

CN(C(=O)c1cc2c(cn1)nc(N)c1cnn(C)c12)[C@@H]1COCc2nc(C(F)(F)F)ccc21 [Example 289, 4-amino-N,1-dimethyl-N-((5S)-2-(trifluoromethyl)-5,8-dihydro-6H-pyrano[3,4-b]pyridin-5-yl)-1H-pyrazolo[4,3-c][1,7]naph-thyridine-8-carboxamide]
IC50 [1]: 16 nM
IC50 [2]: 357 nM

CN(C(=O)c1cc2c(cc1F)nc(N)c1cnn(C)c12)C1CCOc2nc(C(F)(F)F)ccc21 [Example 291, 4-amino-7-fluoro-N,1-dimethyl-N-((4R)-7-(trifluoromethyl)-3,4-dihydro-2H-pyrano[2,3-b]-pyridin-4-yl)-1H-pyrazolo[4,3-c]quinoline-8-carboxamide and 4-amino-7-fluoro-N,1-dimethyl-N-((4S)-7-(trifluoromethyl)-3,4-dihydro-2H-pyrano[2,3-b]pyr-idin-4-yl)-1H-pyrazolo[4,3-c]-quinoline-8-carboxamide]
IC50 [1]: 169 nM
IC50 [2]: 10500 nM

CN(C(=O)c1cc2c(cc1F)nc(N)c1cnn(C)c12)[C@@H]1COCc2cc(C(F)(F)F)ncc21 [Example 292, 4-amino-7-fluoro-N,1-dimethyl-N-((4S)-7-(trifluoromethyl)-3,4-dihydro-1H-pyrano[4,3-c]pyr-idin-4-yl)-1H-pyrazolo[4,3-c]-quinoline-8-carboxamide]
IC50 [1]: 7 nM
IC50 [2]: 224 nM

CN(C(=O)c1cc2c(cc1F)nc(N)c1cnn(C)c12)[C@H]1COCc2cc(C(F)(F)F)ncc21 [Example 293, 4-amino-7-fluoro-N,1-dimethyl-N-((4R)-7-(trifluoromethyl)-3,4-dihydro-1H-pyrano[4,3-c]-pyridin-4-yl)-1H-pyrazolo[4,3-c]quinoline-8-carboxamide]
IC50 [1]: 305 nM
IC50 [2]: 7210 nM

CN(C(=O)c1cc2c(cc1Cl)nc(N)c1cnn(C)c12)[C@@H]1COCc2cc(C(F)(F)F)ccc21 [Example 294, 4-amino-7-chloro-N,1-dimethyl-N-((4S)-7-(trifluoromethyl)-3,4-dihydro-1H-2-benzopyran-4-yl)-1H-pyrazolo[4,3-c]quinoline-8-carboxamide]
IC50 [1]: 3 nM
IC50 [2]: 12 nM

CN(C(=O)c1cc2c(cc1Cl)nc(N)c1cnn(C)c12)[C@@H]1COCc2nc(C(F)(F)F)ccc21 [Example 295, 4-amino-7-chloro-N,1-dimethyl-N-((5S)-2-(trifluoromethyl)-5,8-dihydro-6H-pyrano[3,4-b]-pyridin-5-yl)-1H-pyrazolo[4,3-c]quinoline-8-carboxamide]
IC50 [1]: 2 nM
IC50 [2]: 34 nM

CN(C(=O)c1cc2c(nc1Cl)nc(N)c1cnn(C)c12)[C@@H]1COCc2cc(C(F)(F)F)ccc21 [Example 296, 4-amino-7-chloro-N,1-dimethyl-N-((4S)-7-(trifluoromethyl)-3,4-dihydro-1H-2-benzopyran-4-yl)-1H-pyrazolo[4,3-c][1,8]naph-thyridine-8-carboxamide]
IC50 [1]: 8 nM
IC50 [2]: 159 nM

Cc1cc2nc(N)c3cnn(C)c3c2cc1C(=O)N(C)[C@@H]1COCc2nc(C(F)(F)F)ccc21 [Example 297, 4-amino-N,1,7-trimethyl-N-((5S)-2-(trifluoromethyl)-5,8-dihydro-6H-pyrano[3,4-b]pyr-idin-5-yl)-1H-pyrazolo[4,3-c]-quinoline-8-carboxamide]
IC50 [1]: 6 nM
IC50 [2]: 162 nM

Cc1cc2nc(N)c3cnn(C)c3c2cc1C(=O)N(C)[C@@H]1COCc2nc(Br)ccc21 [Example 298, 4-amino-N-((5S)-2-bromo-5,8-dihydro-6H-pyrano[3,4-b]-pyridin-5-yl)-N,1,7-trimethyl-1H-pyrazolo[4,3-c]quinoline-8-carboxamide]
IC50 [1]: 1 nM
IC50 [2]: 16 nM

Cc1nc2nc(N)c3cnn(C)c3c2cc1C(=O)N(C)[C@@H]1COCc2cc(C#N)ccc21 [Example 299, 4-amino-N-((4S)-7-cyano-3,4-dihydro-1H-2-benzopyran-4-yl)-N,1,7-trimethyl-1H-pyr-azolo[4,3-c][1,8]naphthyridine-8-carboxamide]
IC50 [1]: 37 nM
IC50 [2]: 1520 nM
